Source: patent US20250082651A1, “GANAXOLONE FOR USE IN TREATING GENETIC EPILEPTIC DISORDERS” (Marinus Pharmaceuticals, Inc., priority 2017, published 2025)
Where two headings read alike, the source gives them in different places.

Experiments:
[1] = molecular target: human ether-a-go-go related gene (hERG) receptor (Homo sapiens, UniProt Q12809); test: hERG safety pharmacology; assay type: binding; conditions: measured concentration of 70 nM (n=2)
Experimental: Safety pharmacology studies were conducted with ganaxalone.

dogs = test: Cardiovascular safety pharmacology, single dose in dogs; assay type: in vivo, dog; conditions: single dose of up to 15 mg/kg
female rats = test: Pulmonary safety pharmacology in female rats; assay type: in vivo, rat; conditions: doses up to 40 mg/kg
[2] = tested on: cytochrome P450 (CYP) isoenzymes 1A1/2 and 2B1/2; test: CYP induction and auto-induction in animals; assay type: in vivo, rat
rabbits = test: Local tolerance study in rabbits; assay type: in vivo, rabbit
Experimental: When given IV to rats and dogs, the main dose limiting toxicity finding was sedation. The no observed adverse effect level (NOAEL) after IV dosing in rats for 14 days was established at 42 mg/kg/day for males and 30 mg/kg/day for females. The NOAEL in dog after administration of ganaxolone by IV bolus followed by continuous IV infusion for 28 days was 7.20 mg/kg/day, which corresponded to a steady-state concentration of approximately 330 ng/mL and 333 ng/mL. There were no findings in a local tolerance study in rabbits.

[3] = In vitro haemolysis and human plasma compatibility
[4] = tested on: children with rare genetic epilepsies; test: Phase 2 open-label trial, safety, tolerability and disposition; assay type: in vivo, human
Text: Example 3 concerns a Phase 2 Multicenter, Open-Label Proof-of-Concept Trial of ganaxolone (GNX) in cohorts of children having genetic epilepsies (PCDH19, CDKL5 LGS, and CSWS) (ClinicalTrials.gov Identifier: NCT02358538). There were 11 female children with PCDH19 epilepsy between 5-16 years old with a confirmed genetic mutation. There were 6 female and 1 male children with confirmed genetic mutations in the CDKL5 cohort. There were 10 children in the Lennox Gastaut Syndrome cohort. Two children with CSWS were enrolled into the study. The study was conducted with 12 weeks baseline, and up to 26 weeks of treatment followed by a 52 week open label treatment. The primary efficacy was the percentage change in seizure frequency per 28 days relative to baseline calculated using daily seizure diary. [Time Frame: 26 weeks]. Secondary Outcome Measures were: Clinician Global Impression of Change score as assessed by questionnaire. [Time Frame: 26 Weeks]; Patient Global Impression of Change score as assessed by questionnaire. [Time Frame: 26 Weeks]; Evaluation of safety and tolerability of open-label ganaxolone as adjunctive therapy for uncontrolled seizures in children with rare genetic epilepsies, based on adverse event log and other clinical safety assessments. [Time Frame: 26 weeks]; Responder rates [Time Frame: 26 weeks]; and Seizure free days [Time Frame: 26 weeks].
Following screening and baseline evaluations, consenting patients enrolled into a 26-week study during which investigators were allowed to flexibly dose ganaxolone up to a dose of 1,800 mg/day for patients whose body weight was >30 kg, or up to 63 mg/kg/day for patients whose body-weight was <30 kg. The primary efficacy measure is % change from baseline in the 28-day seizure frequency count. Safety and tolerability were within the secondary objectives of the study.
A total of 30 subjects were enrolled in the study: one-half (15 subjects) completed the 26-week open-label treatment period and one-half (15 subjects) discontinued the study. In total, the main reasons for study discontinuation in the safety population were lack of efficacy (8 subjects [26.7%]), and AE or SAE (4 subjects [13.3%)]). All 30 (100.0%) subjects were in the safety and MITT population.
Ganaxolone was generally safe and well-tolerated in subjects with epilepsy disorders. […] In the CDD cohort, 6 subjects (85.7%) experienced a total of 45 TEAEs; in the CSWS cohort, 1 subject (50.0%) had 7 TEAEs; in the LGS cohort, 7 subjects (70.0%) had 24 TEAEs; and in the PCDH19 cohort, 11 subjects (100.0%) had 95 TEAEs.
No deaths were reported in this study.

[5] = Mass balance, single PO dose of 300 mg 14C-GNX in healthy male volunteers; assay type: in vivo; conditions: human, plasma
Text: The total plasma radioactivity concentrations achieved were much higher than GNX plasma levels in clinical studies with non-labelled GNX. […] Approximately 80% of the total radioactivity was excreted in faeces and urine by Day 14. […] PK parameters (mean±SD) of ^14C-GNX-derived total radioactivity in Healthy Male Volunteers (Study No. CA042 9402.01 [n=5]) are summarized in Table 22.

rats = test: Intravenous ganaxolone in rats: EEG and status epilepticus models; assay type: in vivo, rat
[6] = tested on: subjects with focal onset seizure disorder; conditions: post hoc, subjects taking 3 or more concomitant AEDs, p=0.02; cited from earlier work
[7] = human plasma following oral administration; cited from earlier work
CYP3A4 = CYP3A4 (Homo sapiens, UniProt P08684); test: In vitro clearance
Sequence of CYP3A4 (P08684 whole entry): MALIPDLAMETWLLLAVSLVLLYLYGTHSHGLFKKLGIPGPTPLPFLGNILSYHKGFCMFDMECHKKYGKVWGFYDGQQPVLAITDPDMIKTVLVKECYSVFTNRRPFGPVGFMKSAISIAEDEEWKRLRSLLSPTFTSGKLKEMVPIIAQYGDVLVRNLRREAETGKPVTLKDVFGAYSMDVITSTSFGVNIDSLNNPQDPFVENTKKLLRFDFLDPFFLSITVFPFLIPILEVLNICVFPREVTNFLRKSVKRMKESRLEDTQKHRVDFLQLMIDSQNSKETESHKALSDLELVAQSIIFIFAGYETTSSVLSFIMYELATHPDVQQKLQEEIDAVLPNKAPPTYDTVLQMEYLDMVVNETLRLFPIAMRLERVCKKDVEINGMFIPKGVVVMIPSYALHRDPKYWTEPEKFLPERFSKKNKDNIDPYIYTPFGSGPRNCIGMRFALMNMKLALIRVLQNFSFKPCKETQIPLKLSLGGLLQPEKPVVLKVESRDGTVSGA

Sequence of human ether-a-go-go related gene (hERG) receptor (Q12809 whole entry): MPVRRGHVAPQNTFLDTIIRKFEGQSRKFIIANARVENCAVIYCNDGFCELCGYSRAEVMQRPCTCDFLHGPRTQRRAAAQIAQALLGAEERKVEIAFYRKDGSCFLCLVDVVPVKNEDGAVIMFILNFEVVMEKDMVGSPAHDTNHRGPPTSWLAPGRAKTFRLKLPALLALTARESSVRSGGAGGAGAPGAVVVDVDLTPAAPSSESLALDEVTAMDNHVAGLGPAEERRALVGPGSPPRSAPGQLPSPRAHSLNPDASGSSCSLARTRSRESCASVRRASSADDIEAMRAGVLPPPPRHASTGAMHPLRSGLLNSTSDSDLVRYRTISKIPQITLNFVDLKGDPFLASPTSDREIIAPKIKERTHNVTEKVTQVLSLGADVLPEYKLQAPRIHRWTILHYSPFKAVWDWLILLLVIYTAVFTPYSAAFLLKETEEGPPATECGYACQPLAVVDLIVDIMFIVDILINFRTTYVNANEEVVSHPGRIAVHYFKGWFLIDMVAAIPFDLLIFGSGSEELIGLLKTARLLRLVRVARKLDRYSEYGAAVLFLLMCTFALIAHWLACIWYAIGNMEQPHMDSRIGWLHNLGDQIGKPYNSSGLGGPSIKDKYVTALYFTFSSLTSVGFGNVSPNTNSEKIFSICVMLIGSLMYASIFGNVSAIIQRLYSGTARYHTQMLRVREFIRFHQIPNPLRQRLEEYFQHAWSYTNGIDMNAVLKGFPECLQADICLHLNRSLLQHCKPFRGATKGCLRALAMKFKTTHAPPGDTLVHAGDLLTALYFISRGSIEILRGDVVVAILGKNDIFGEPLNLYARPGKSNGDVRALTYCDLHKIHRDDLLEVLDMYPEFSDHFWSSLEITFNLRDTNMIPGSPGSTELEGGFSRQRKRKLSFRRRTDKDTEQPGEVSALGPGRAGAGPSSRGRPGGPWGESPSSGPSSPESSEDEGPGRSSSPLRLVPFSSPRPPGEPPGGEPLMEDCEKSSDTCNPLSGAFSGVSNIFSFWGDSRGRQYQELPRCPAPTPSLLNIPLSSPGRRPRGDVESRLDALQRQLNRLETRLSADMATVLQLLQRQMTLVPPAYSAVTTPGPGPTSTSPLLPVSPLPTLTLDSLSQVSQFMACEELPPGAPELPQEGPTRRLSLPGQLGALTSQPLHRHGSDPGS

## CC(=O)[C@H]1CC[C@H]2[C@@H]3CC[C@H]4C[C@](C)(O)CC[C@]4(C)[C@H]3CC[C@]12C [Ganaxolone, 3α-hydroxy-3β-methyl-5α-pregnan-20-one]
[1]
  Interaction with hERG receptor: did not interact
dogs
  Effect on cardiovascular parameters: no effect
Female rats
  Pulmonary effects: No pulmonary effects
[2]; dogs
  Auto-induction: no auto-induction
[2]; female rats
  Induction of CYP isoenzymes 1A1/2 and 2B1/2: induces
[2]; male rats
  Induction of CYP isoenzymes 1A1/2 and 2B1/2: not males
[2]; mouse and rat
  Auto-induction: Auto-induction has also been observed
rabbits
  Local tolerance: no findings
[3]
  Compatibility with human plasma: compatible with human plasma
  Haemolysis: did not cause haemolysis
[4]; CDD cohort
  Total number of TEAEs: 45 TEAEs
[4]; CDD cohort, safety population
  Subjects experiencing TEAEs: 85.7%
[4]; CDKL5 N = 7
  Discontinued during the 26-week open-label period, reason AE or SAE: 0 n (%)
  Discontinued during the 26-week open-label period, reason lack of efficacy: 1 n (%)
[4]; CSWS N = 2
  Discontinued during the 26-week open-label period, reason AE or SAE: 1 n (%)
  Discontinued during the 26-week open-label period, reason lack of efficacy: 1 n (%)
[4]; CSWS cohort
  Subjects experiencing TEAEs: 50.0%
  Total number of TEAEs: 7 TEAEs
[4]; LGS N = 10
  Discontinued during the 26-week open-label period, reason AE or SAE: 1 (10.0) n (%)
  Discontinued during the 26-week open-label period, reason lack of efficacy: 3 (30.0) n (%)
[4]; LGS cohort
  Subjects experiencing TEAEs: 70.0%
  Total number of TEAEs: 24 TEAEs
[4]; PCDH19 N = 11
  Adverse event: Abdominal pain: 2 (18.2) N (%)
  Adverse event: Fatigue: 3 (27.3) N (%)
  Adverse event: Headache: 3 (27.3) N (%)
  Adverse event: Pyrexia: 2 (18.2) N (%)
  Adverse event: Seizure: 3 (27.3) N (%)
  Adverse event: Somnolence: 4 (36.4) N (%)
  Adverse event: Vomiting: 2 (18.2) N (%)
  Discontinued during the 26-week open-label period, reason AE or SAE: 2 n (%)
  Discontinued during the 26-week open-label period, reason lack of efficacy: 3 n (%)
[4]; PCDH19 cohort
  Subjects experiencing TEAEs: 100.0%
  Total number of TEAEs: 95 TEAEs
[4]; Total N = 30
  Discontinued during the 26-week open-label period, reason AE or SAE: 4 n (%)
  Discontinued during the 26-week open-label period, reason lack of efficacy: 8 n (%)
[4]; all cohorts
  Deaths: No deaths
[4]; all cohorts, N=30
  Subjects experiencing SAEs: 20.0%
  Subjects overall experiencing TEAEs: 83.3%
  Subjects with a TEAE that led to discontinuation of study drug: 13.3%
  Subjects with mild TEAEs: 23.3%
  Subjects with moderate TEAEs: 46.7%
  Subjects with severe TEAEs: 13.3%
  Subjects with treatment-related TEAEs: 53.3%
[5]
  Half-life: ~25 h
rats
  Sedative / anaesthetic response: did not cause a full anaesthetic response
rats; otherwise normal rats
  EEG effect: induce burst suppression-like electroencephalogram (EEG) patterns
[6]
  Greater reduction in median seizure frequency than placebo: 20%
[7]
  Half-life: approximately 20 hours
CYP3A4
  Enzyme driving clearance: driven mainly by CYP3A4
